# Reference: publication PMC6838683, “Discovery of Human Signaling Systems: Pairing Peptides to G Protein-Coupled Receptors” (Cell, 2019)
# Residues, ends and D or L forms follow the SMILES beside them. No end group written: not given here.
# Key:
# GPR1 [1] = molecular target: T1, GPR1 (Homo sapiens, UniProt P46091); assay: β-arrestin recruitment (PathHunter); format: cell-based; conditions: receptor GPR1, mean, SEM and n (2-3); for EC50: read-out: b-arrestin recruitment assays (PathHunter) pEC50 (converted)
# T1 sequence (P46091 1-355): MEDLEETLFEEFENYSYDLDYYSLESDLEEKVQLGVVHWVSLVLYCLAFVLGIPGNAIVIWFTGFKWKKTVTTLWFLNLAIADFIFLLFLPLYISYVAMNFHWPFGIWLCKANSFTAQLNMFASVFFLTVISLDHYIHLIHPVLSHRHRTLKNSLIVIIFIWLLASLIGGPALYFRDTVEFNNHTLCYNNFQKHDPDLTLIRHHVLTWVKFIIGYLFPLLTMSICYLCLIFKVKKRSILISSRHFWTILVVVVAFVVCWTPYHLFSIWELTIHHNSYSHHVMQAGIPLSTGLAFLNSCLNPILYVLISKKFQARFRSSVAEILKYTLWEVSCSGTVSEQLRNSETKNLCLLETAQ
# Method: PathHunter eXpress Assays (DiscoverX) were performed in 384-well format according to the manufacturer’s recommendations. GPR1 cells were incubated with peptides for 90 min and luminescence measured using an EnSpire 2300 Multimode plate reader (PerkinElmer).
# GPR1 [2] = molecular target: T1, GPR1; assay: β-arrestin recruitment (Tango), validation; format: cell-based; design: host or cells: HTLA cells (HEK293-derived); conditions: receptor GPR1, mean, SEM and n (2-3); for EC50: read-out: b-arrestin recruitment assays (Tango) pEC50 (converted)
# [3] = system: 120 GPCR targets, including all available orphan receptors and 27 known class A peptide receptors; assay: Peptide library screen, β-arrestin recruitment (Tango, fold change, 10 μM); format: cell-based, human; conditions: for Active at: (activity in b-arrestin recruitment assays): Tango, receptor(s) at which the known library peptide was active, among its known GPCR target(s), validated pairings
# Method: The peptide library was additionally screened against 120 GPCR targets in parallel, including all available orphan receptors and 27 known class A peptide receptors using the Tango assay platform ([Kroeze et al., 2015]). Briefly, HTLA cells (a HEK293 cell line stably expressing a tTA-dependent luciferase reporter and a β-arrestin2-TEV fusion gene) were plated 10,000 cells/well in poly-L-lysine–coated clear-bottom white 384-well plates in DMEM supplemented with 10% FBS, 100 U/ml penicillin and 100 μg/ml streptomycin, 2 μg/ml puromycin and 100 μg/ml hygromycin B. 24 hr later, cells were transfected with Tango GPCR constructs using the calcium phosphate method ([Jordan et al., 1996]). The next day, culture medium was changed to DMEM + 1% dFBS and 10 μM peptides were added for overnight stimulation. Bright-Glo solution (Promega) was incubated for 15–20 min at room temperature, and luminescence was counted using a Trilux luminescence counter (Wallac).
Compound,EC50 (GPR1 [1]) [nM],EC50 (GPR1 [2]) [nM],also measured
CC[C@H](C)[C@H](NC(=O)[C@H](CCCNC(=N)N)NC(=O)[C@H](Cc1c[nH]cn1)NC(=O)[C@H](CO)NC(=O)[C@@H]1CCCN1C(=O)[C@H](CC(=O)O)NC(=O)[C@H](CC(C)C)NC(=O)[C@H](CC(N)=O)NC(=O)[C@H](CCC(N)=O)NC(=O)[C@H](CC(C)C)NC(=O)[C@H](CC(N)=O)NC(=O)[C@H](CCCCN)NC(=O)[C@@H](NC(=O)[C@@H](NC(=O)[C@H](CO)NC(=O)[C@H](CCSC)NC(=O)[C@H](CCCNC(=N)N)NC(=O)CNC(=O)[C@H](CO)NC(=O)[C@@H]1CCCN1C(=O)[C@H](C)NC(=O)[C@@H](N)CCCCN)[C@@H](C)CC)C(C)C)C(=O)N[C@@H](CO)C(=O)N[C@@H](CC(=O)O)C(=O)N[C@@H](CCCNC(=N)N)C(=O)O [Peptide 194.5] (H-KAPSGRMSIVKNLQNLDPSHRISDR-OH),0.135,22.9,–
CC(C)C[C@H](NC(=O)[C@H](CCCNC(=N)N)NC(=O)[C@H](CC(=O)O)NC(=O)[C@H](CC(C)C)NC(=O)[C@@H]1CCCN1C(=O)[C@H](CO)NC(=O)CNC(=O)[C@H](Cc1ccccc1)NC(=O)CNC(=O)[C@H](CO)NC(=O)[C@H](Cc1ccccc1)NC(=O)[C@H](CO)NC(=O)[C@H](CCCNC(=N)N)NC(=O)[C@@H](N)CCCCN)C(=O)N[C@@H](CO)C(=O)N[C@@H](C)C(=O)NCC(=O)N[C@@H](CO)C(=O)N[C@H](C(=O)N[C@@H](CC(=O)O)C(=O)N[C@@H](Cc1c[nH]cn1)C(=O)N[C@@H](CCCCN)C(=O)NCC(=O)N[C@@H](CCCCN)C(=O)N[C@@H](CCC(N)=O)C(=O)O)C(C)C [Peptide 141.2] (H-KRSFSGFGSPLDRLSAGSVDHKGKQ-OH),1170,2630,–
KAPSGRMSIVKNLQNLDPSHRISDRDYMGWMDFGRRSAEEYEYPS [Peptide 194.6],28200,75.9,b-arrestin recruitment assays (PathHunter) Emax (fold change) (GPR1 [1]): 4.0 fold change; b-arrestin recruitment assays (Tango) Emax (fold change) (GPR1 [2]): 2.0 fold change
CSCC[C@H](NC(=O)[C@H](Cc1ccc(O)cc1)NC(=O)[C@@H](N)CC(=O)O)C(=O)NCC(=O)N[C@@H](Cc1c[nH]c2ccccc12)C(=O)N[C@@H](CCSC)C(=O)N[C@@H](CC(=O)O)C(=O)N[C@@H](Cc1ccccc1)C(N)=O [Peptide 194.1],1.45,8510,–
CC(C)C[C@H](NC(=O)[C@H](CCCNC(=N)N)NC(=O)[C@H](CC(=O)O)NC(=O)[C@H](CC(C)C)NC(=O)[C@@H]1CCCN1C(=O)[C@H](CO)NC(=O)CNC(=O)[C@H](Cc1ccccc1)NC(=O)CNC(=O)[C@H](CO)NC(=O)[C@H](Cc1ccccc1)NC(=O)[C@H](CO)NC(=O)[C@H](CCCNC(=N)N)NC(=O)[C@@H](N)CCCCN)C(=O)N[C@@H](CO)C(=O)N[C@@H](C)C(=O)NCC(=O)N[C@@H](CO)C(=O)N[C@H](C(=O)N[C@@H](CC(=O)O)C(=O)N[C@@H](Cc1c[nH]cn1)C(=O)N[C@@H](CCCCN)C(=O)NCC(=O)N[C@@H](CCCCN)C(=O)N[C@@H](CCC(N)=O)C(=O)N[C@@H](CCCNC(=N)N)C(=O)N[C@@H](CCCCN)C(=O)N[C@H](C(=O)N[C@H](C(=O)N[C@@H](CC(=O)O)C(=O)N[C@@H](Cc1c[nH]cn1)C(=O)N1CCC[C@H]1C(=O)O)C(C)C)C(C)C)C(C)C [Peptide 141.3] (H-KRSFSGFGSPLDRLSAGSVDHKGKQRKVVDHP-OH),550,2630,–
CC[C@H](C)[C@H](NC(=O)[C@H](CCCNC(=N)N)NC(=O)[C@H](Cc1c[nH]cn1)NC(=O)[C@H](CO)NC(=O)[C@@H]1CCCN1C(=O)[C@H](CC(=O)O)NC(=O)[C@H](CC(C)C)NC(=O)[C@H](CC(N)=O)NC(=O)[C@H](CCC(N)=O)NC(=O)[C@H](CC(C)C)NC(=O)[C@H](CC(N)=O)NC(=O)[C@H](CCCCN)NC(=O)[C@@H](NC(=O)[C@@H](NC(=O)[C@H](CO)NC(=O)[C@H](CCSC)NC(=O)[C@H](CCCNC(=N)N)NC(=O)CNC(=O)[C@H](CO)NC(=O)[C@@H]1CCCN1C(=O)[C@H](C)NC(=O)[C@@H](N)CCCCN)[C@@H](C)CC)C(C)C)C(=O)N[C@@H](CO)C(=O)N[C@@H](CC(=O)O)C(=O)N[C@@H](CCCNC(=N)N)C(=O)N[C@@H](CC(=O)O)C(=O)N[C@@H](Cc1ccc(O)cc1)C(=O)N[C@@H](CCSC)C(=O)NCC(=O)N[C@@H](Cc1c[nH]c2ccccc12)C(=O)N[C@@H](CCSC)C(=O)N[C@@H](CC(=O)O)C(=O)N[C@@H](Cc1ccccc1)C(N)=O [194 original] (H-KAPSGRMSIVKNLQNLDPSHRISDRDYMGWMDF-NH2),9.77,5250,–
CC(C)C[C@H](NC(=O)[C@H](CCCNC(=N)N)NC(=O)[C@H](CC(=O)O)NC(=O)[C@H](CC(C)C)NC(=O)[C@@H]1CCCN1C(=O)[C@H](CO)NC(=O)CNC(=O)[C@H](Cc1ccccc1)NC(=O)CNC(=O)[C@H](CO)NC(=O)[C@H](Cc1ccccc1)NC(=O)[C@@H](N)CO)C(=O)N[C@@H](CO)C(=O)N[C@@H](C)C(=O)NCC(=O)N[C@@H](CO)C(=O)N[C@H](C(=O)N[C@@H](CC(=O)O)C(=O)N[C@@H](Cc1c[nH]cn1)C(=O)N[C@@H](CCCCN)C(=O)NCC(=O)N[C@@H](CCCCN)C(=O)N[C@@H](CCC(N)=O)C(=O)N[C@@H](CCCNC(=N)N)C(=O)N[C@@H](CCCCN)C(=O)N[C@H](C(=O)N[C@H](C(=O)N[C@@H](CC(=O)O)C(=O)N[C@@H](Cc1c[nH]cn1)C(=O)N1CCC[C@H]1C(=O)O)C(C)C)C(C)C)C(C)C [Peptide 141.6] (H-SFSGFGSPLDRLSAGSVDHKGKQRKVVDHP-OH),3160,16600,–
CSCC[C@H](NC(=O)[C@@H](N)Cc1c[nH]c2ccccc12)C(=O)N[C@@H](CC(=O)O)C(=O)N[C@@H](Cc1ccccc1)C(N)=O [194.2 (Phoenix)],0.0132,39.8,–
KRSFSGFGSPLDRLSAGSVDHKGKQRKVVDHPKRRFGIPMDRI [Peptide 141.4],39.8,10200,–
CC(C)C[C@H](NC(=O)[C@H](CCCNC(=N)N)NC(=O)[C@H](CC(=O)O)NC(=O)[C@H](CC(C)C)NC(=O)[C@@H]1CCCN1C(=O)[C@H](CO)NC(=O)CNC(=O)[C@H](Cc1ccccc1)NC(=O)CNC(=O)[C@H](CO)NC(=O)[C@H](Cc1ccccc1)NC(=O)[C@@H](N)CO)C(=O)N[C@@H](CO)C(=O)N[C@@H](C)C(=O)NCC(=O)N[C@@H](CO)C(=O)N[C@H](C(=O)N[C@@H](CC(=O)O)C(=O)N[C@@H](Cc1c[nH]cn1)C(=O)N[C@@H](CCCCN)C(=O)NCC(=O)N[C@@H](CCCCN)C(=O)N[C@@H](CCC(N)=O)C(=O)O)C(C)C [Peptide 141.5] (H-SFSGFGSPLDRLSAGSVDHKGKQ-OH),20900,16200,b-arrestin recruitment assays (PathHunter) Emax (fold change) (GPR1 [1]): 6.2 fold change; b-arrestin recruitment assays (Tango) Emax (fold change) (GPR1 [2]): 13.6 fold change
CC[C@H](C)[C@H](NC(=O)[C@H](CCCNC(=N)N)NC(=O)[C@H](Cc1c[nH]cn1)NC(=O)[C@H](CO)NC(=O)[C@@H]1CCCN1C(=O)[C@H](CC(=O)O)NC(=O)[C@H](CC(C)C)NC(=O)[C@H](CC(N)=O)NC(=O)[C@H](CCC(N)=O)NC(=O)[C@H](CC(C)C)NC(=O)[C@H](CC(N)=O)NC(=O)[C@H](CCCCN)NC(=O)[C@@H](NC(=O)[C@@H](NC(=O)[C@H](CO)NC(=O)[C@H](CCSC)NC(=O)[C@H](CCCNC(=N)N)NC(=O)CNC(=O)[C@H](CO)NC(=O)[C@@H]1CCCN1C(=O)[C@H](C)NC(=O)[C@@H](N)CCCCN)[C@@H](C)CC)C(C)C)C(=O)N[C@@H](CO)C(=O)N[C@@H](CC(=O)O)C(=O)N[C@@H](CCCNC(=N)N)C(=O)N[C@@H](CC(=O)O)C(=O)N[C@@H](Cc1ccc(O)cc1)C(=O)N[C@@H](CCSC)C(=O)NCC(=O)N[C@@H](Cc1c[nH]c2ccccc12)C(=O)N[C@@H](CCSC)C(=O)N[C@@H](CC(=O)O)C(=O)N[C@@H](Cc1ccccc1)C(N)=O [194 resynthesized] (H-KAPSGRMSIVKNLQNLDPSHRISDRDYMGWMDF-NH2),27.5,6610,–
SFSGFGSPLDRLSAGSVDHKGKQRKVVDHPKRRFGIPMDRI-NH2 [Peptide 141.7],575,26900,–
FVPIFTYGELQRMQEKERNKGQ [Peptide 145],–,–,"Active at: (activity in b-arrestin recruitment assays) [3]: MLNR; Confirmation of known target in Tango ([3]; repeat hitters of the peptide library screen, the value names the known receptor(s) confirmed in the β-arrestin recruitment (Tango) screen): Motilin receptor"
C[C@H](NC(=O)[C@@H](N)CCCCN)C(=O)N1CCC[C@H]1C(=O)N[C@@H](CO)C(N)=O [Peptide 194.3] (H-KAPS-NH2),0.049,0.00191,–
FRVDEEFQSPFASQSRGYFLFRPRN [Peptide 159],–,–,Active at: (activity in b-arrestin recruitment assays) [3]: NMUR1
YGGFL [Peptide 14],–,–,Active at: (activity in b-arrestin recruitment assays) [3]: Inactive
AADHDVGSELPPEGVLGALLRV [Peptide 146],–,–,Active at: (activity in b-arrestin recruitment assays) [3]: GPR83
YVMGHFRWDRF [Peptide 74],–,–,Active at: (activity in b-arrestin recruitment assays) [3]: MC4R
